Values after ≈ are worked out from the molar mass of the structure shown.
Tests used:
Type in all cases: functional
[1] = tested on: Acinetobacter calcoaceticus; assay: In vitro antimicrobial activity against Acinetobacter calcoaceticus GC 756 strain
[2] = tested on: Citrobacter freundii; assay: In vitro antimicrobial activity against Citrobacter freundii GC 2211 strain
[3] = tested on: Enterococcus faecium; assay: In vitro antimicrobial activity against Enterococcus faecium GC 1182 strain
[4] = tested on: Enterococcus faecalis; assay: In vitro antimicrobial activity against Enterococcus faecalis GC 842 strain
[5] = tested on: Escherichia coli; assay: In vitro antimicrobial activity against Escherichia coli ATCC 25922 strain
[6] = tested on: Escherichia coli; assay: In vitro antimicrobial activity against Escherichia coli GC 1792 strain
[7] = tested on: Escherichia coli; assay: In vitro antimicrobial activity against Escherichia coli GC 2205 strain
[8] = tested on: Enterobacter cloacae; assay: In vitro antimicrobial activity against Enterobacter cloacae GC 2209 strain
[9] = organism: Mus musculus; assay: animal or person
Description: Tested for oral activity against Escherichia coli #311 infection in mice after single oral dose(SOD)

[10] = organism: Mus musculus; assay: animal or person; remark: listed apart in the source
Description: Tested for oral activity against Escherichia coli #311 infection in mice after single subcutaneous dose(SSC)

[11] = tested on: Mus musculus; assay: Tested for oral activity against Staphylococcus aureus smith infection in mice after single oral dose(SOD)
[12] = tested on: Morganella morganii; assay: In vitro antimicrobial activity against Morganella morganii GC 2213 strain
[13] = tested on: Pseudomonas aeruginosa; assay: In vitro antimicrobial activity against Pseudomonas aeruginosa ATCC 27853 strain
[14] = tested on: Pseudomonas aeruginosa; assay: In vitro antimicrobial activity against Pseudomonas aeruginosa GC 1544 strain
[15] = tested on: Staphylococcus aureus; assay: In vitro antimicrobial activity against Staphylococcus aureus GC 2220 strain
[16] = tested on: Staphylococcus aureus; assay: In vitro antimicrobial activity against Staphylococcus aureus ATCC 29213 strain
[17] = tested on: Stenotrophomonas maltophilia; assay: In vitro antimicrobial activity against Xanthomonas maltophilia GC 562 strain
[18] = Ratio of ED50 of single oral dose to ED50 of single subcutaneous dose against Staphylococcus aureus smith infection in mice
[19] = tested on: Mus musculus; assay: Tested for oral activity against Staphylococcus aureus smith infection in mice after single subcutaneous dose(SSC)
[20] = Acinetobacter calcoaceticus, read-out: MIC
[21] = Citrobacter freundii, read-out: MIC
[22] = Escherichia coli, read-out: MIC
[23] = Mus musculus, po, read-out: ED50
[24] = Morganella morganii, read-out: MIC
[25] = Pseudomonas aeruginosa, ATCC 27853, read-out: MIC
[26] = Pseudomonas aeruginosa, read-out: MIC
[27] = Staphylococcus aureus, read-out: MIC
[28] = Enterococcus faecium, read-out: MIC
[29] = Enterococcus faecalis, read-out: MIC

MIC [1, 20] [µg/mL] | MIC [2, 21] [µg/mL] | MIC [5] [µg/mL] | MIC [6, 22] [µg/mL] | MIC [7] [µg/mL] | MIC [8] [µg/mL] | MIC [12, 24] [µg/mL] | MIC [13, 25] [µg/mL] | MIC [14, 26] [µg/mL] | MIC [15, 27] [µg/mL] | MIC [16] [µg/mL] | MIC [17] [µg/mL] | MIC [3, 28] [µg/mL] | MIC [4, 29] [µg/mL] | SMILES | ED50 [9, 23] [mg/kg] | ED50 ([10]; Mus musculus, read-out: ED50) [mg/kg] | ED50 [11, 23] [mg/kg] | Ratio [18] | ED50 ([19]; Mus musculus, read-out: ED50) [mg/kg] | also measured
64 (≈ 140 µM) | 4 (≈ 8.78 µM) | ≤ 0.06 | 0.25 (≈ 0.549 µM) | ≤ 0.06 |  | 2 (≈ 4.39 µM) | 64 (≈ 140 µM) | 128 (≈ 281 µM) | 32 (≈ 70.2 µM) | 0.25 (≈ 0.549 µM) | > 128 | > 128 | 2 (≈ 4.39 µM) | CC[C@@H](C)[C@@H](N)C(=O)NC[C@H]1OCC[C@H]1SC1=C(C(=O)O)N2C(=O)[C@H]([C@@H](C)O)C2[C@H]1C (stereo partly drawn) | 0.58 | 1.1 | 0.21 | 0.75 | 0.28 | 
8 (≈ 20 µM) | 0.5 (≈ 1.25 µM) | < 0.06 | < 0.06 | < 0.06 | < 0.06 | 0.5 (≈ 1.25 µM) | 8 (≈ 20 µM) | 64 (≈ 160 µM) | 8 (≈ 20 µM) | 0.12 (≈ 0.3 µM) | > 128 | > 128 | 2 (≈ 5.01 µM) | C[C@H]1C(S[C@@H]2CCO[C@@H]2CNC(=O)CN)=C(C(=O)O)N2C(=O)[C@H]([C@@H](C)O)C12 (stereo partly drawn) | 1.4 | 0.56 | 0.41 | 2.7 | 0.15 | 
16 (≈ 46.7 µM) | 0.5 (≈ 1.46 µM) | 0.12 (≈ 0.35 µM) | 0.12 (≈ 0.35 µM) | 0.12 (≈ 0.35 µM) | 0.12 (≈ 0.35 µM) | 2 (≈ 5.84 µM) | 16 (≈ 46.7 µM) | 32 (≈ 93.5 µM) | 16 (≈ 46.7 µM) | 0.12 (≈ 0.35 µM) | > 128 | > 128 | 8 (≈ 23.4 µM) | C[C@H]1C(S[C@@H]2COC[C@@H]2CN)=C(C(=O)O)N2C(=O)[C@H]([C@@H](C)O)C12 (stereo partly drawn) |  |  |  |  |  | 
16 (≈ 38.7 µM) | 4 (≈ 9.67 µM) | 0.25 (≈ 0.605 µM) | 0.25 (≈ 0.605 µM) | 0.25 (≈ 0.605 µM) | 1 (≈ 2.42 µM) | 2 (≈ 4.84 µM) | 64 (≈ 155 µM) | 128 (≈ 310 µM) | 8 (≈ 19.3 µM) | 0.5 (≈ 1.21 µM) | > 128 | > 128 | 16 (≈ 38.7 µM) | C[C@@H](N)C(=O)NC[C@@H]1COC[C@@H]1SC1=C(C(=O)O)N2C(=O)[C@H]([C@@H](C)O)C2[C@H]1C (stereo partly drawn) |  |  | 4.5 | 41 | 0.11 | 
64 (≈ 131 µM) | 8 (≈ 16.3 µM) | 0.25 (≈ 0.511 µM) | 0.5 (≈ 1.02 µM) | 0.03 (≈ 0.0613 µM) | 4 (≈ 8.17 µM) | 4 (≈ 8.17 µM) | 64 (≈ 131 µM) | 128 (≈ 261 µM) | 4 (≈ 8.17 µM) | 0.25 (≈ 0.511 µM) | > 128 | 128 (≈ 261 µM) | 1 (≈ 2.04 µM) | C[C@H]1C(S[C@@H]2CCO[C@@H]2CNC(=O)[C@H](N)Cc2ccccc2)=C(C(=O)O)N2C(=O)[C@H]([C@@H](C)O)C12 (stereo partly drawn) | 1.2 | 0.48 | 0.28 | 4.7 | 0.06 | 
16 (≈ 36.2 µM) | 1 (≈ 2.26 µM) | ≤ 0.06 | 0.12 (≈ 0.272 µM) | ≤ 0.06 | 0.5 (≈ 1.13 µM) | 1 (≈ 2.26 µM) | 32 (≈ 72.5 µM) | 128 (≈ 290 µM) | 8 (≈ 18.1 µM) | 0.25 (≈ 0.566 µM) | > 128 | > 128 | 2 (≈ 4.53 µM) | CC(C)[C@@H](N)C(=O)NC[C@H]1OCC[C@H]1SC1=C(C(=O)O)N2C(=O)[C@H]([C@@H](C)O)C2[C@H]1C (stereo partly drawn) | 0.31 | 0.29 | 0.1 | 1.4 | 0.07 | 
8 (≈ 19.3 µM) | 2 (≈ 4.84 µM) | < 0.06 | < 0.06 | < 0.06 | 0.25 (≈ 0.605 µM) | 1 (≈ 2.42 µM) | 8 (≈ 19.3 µM) | 32 (≈ 77.4 µM) | 32 (≈ 77.4 µM) | 0.5 (≈ 1.21 µM) | > 128 | 128 (≈ 310 µM) | 2 (≈ 4.84 µM) | C[C@@H](N)C(=O)NC[C@H]1COC[C@H]1SC1=C(C(=O)O)N2C(=O)[C@H]([C@@H](C)O)C2[C@H]1C (stereo partly drawn) |  |  | 4 | 36 | 0.11 | 
 |  |  |  |  |  |  |  |  |  |  |  |  |  | C[C@H]1C(SC2COC(CN)C2)=C(C(=O)O)N2C(=O)[C@H]([C@@H](C)O)C12 (stereo in doubt; cis) |  |  |  | 22 |  | MIC [1]: 20 µg/mL (≈ 58.4 µM); MIC [2]: <0.06 µg/mL; MIC [3]: 128 µg/mL (≈ 374 µM); MIC [4]: 2 µg/mL (≈ 5.84 µM); MIC [6]: <0.06 µg/mL; ED50 [9]: 3.5 mg/kg; ED50 [10]: 0.28 mg/kg; ED50 [11]: 1.1 mg/kg; MIC [12]: 0.5 µg/mL (≈ 1.46 µM); MIC [13]: 8 µg/mL (≈ 23.4 µM); MIC [14]: 16 µg/mL (≈ 46.7 µM); MIC [15]: 4 µg/mL (≈ 11.7 µM); ED50 [19]: 0.05 mg/kg

SMILES | MIC [1, 20] [µg/mL] | MIC [2, 21] [µg/mL] | MIC [5] [µg/mL] | MIC [6, 22] [µg/mL] | MIC [7] [µg/mL] | MIC [8] [µg/mL] | MIC [12, 24] [µg/mL] | MIC [13, 25] [µg/mL] | MIC [14, 26] [µg/mL] | MIC [15, 27] [µg/mL] | MIC [16] [µg/mL] | MIC [17] [µg/mL] | MIC [3, 28] [µg/mL] | MIC [4, 29] [µg/mL] | ED50 [9, 23] [mg/kg] | ED50 ([10]; Mus musculus, read-out: ED50) [mg/kg] | ED50 [11, 23] [mg/kg] | Ratio [18] | ED50 ([19]; Mus musculus, read-out: ED50) [mg/kg] | also measured
C[C@@H](O)[C@H]1C(=O)N2C(C(=O)O)=C(S[C@@H]3CCO[C@@H]3CN)[C@H](C)[C@H]12 | 2 (≈ 5.84 µM) | ≤ 0.06 | ≤ 0.06 | ≤ 0.06 | ≤ 0.06 | ≤ 0.06 | 0.5 (≈ 1.46 µM) | 8 (≈ 23.4 µM) | 16 (≈ 46.7 µM) | 1 (≈ 2.92 µM) | ≤ 0.06 | > 128 |  |  | 3.8 | 0.34 | 0.88 | 22 | 0.04 | MIC [3]: 64 µg/mL (≈ 187 µM); MIC [4]: 0.5 µg/mL (≈ 1.46 µM)
C[C@@H](N)C(=O)NC[C@H]1OCC[C@H]1SC1=C(C(=O)O)N2C(=O)[C@H]([C@@H](C)O)C2[C@H]1C (stereo partly drawn) | 16 (≈ 38.7 µM) | 1 (≈ 2.42 µM) | ≤ 0.06 | ≤ 0.06 | ≤ 0.06 | 0.25 (≈ 0.605 µM) | 1 (≈ 2.42 µM) | 32 (≈ 77.4 µM) | 64 (≈ 155 µM) | 8 (≈ 19.3 µM) | 0.12 (≈ 0.29 µM) | > 128 | > 128 | 4 (≈ 9.67 µM) | 0.55 | 0.28 | 0.09 | 2.2 | 0.04 | 
C[C@H]1C(SC2COC(CN)C2)=C(C(=O)O)N2C(=O)[C@H]([C@@H](C)O)C12 (stereo in doubt; trans) |  | 0.06 (≈ 0.175 µM) | < 0.06 | 0.06 (≈ 0.175 µM) | < 0.06 | < 0.06 | 0.25 (≈ 0.73 µM) | 4 (≈ 11.7 µM) | 8 (≈ 23.4 µM) | 8 (≈ 23.4 µM) | < 0.06 | > 128 | 128 (≈ 374 µM) | 2 (≈ 5.84 µM) | 3.7 | 0.27 | 1.7 | 16 |  | MIC [1]: 1 µg/mL (≈ 2.92 µM); ED50 [19]: 0.11 mg/kg
C[C@@H](O)[C@H]1C(=O)N2C(C(=O)O)=C(SCCNC=N)C[C@H]12.O [IMIPENEM] | 0.25 | 0.25 | 0.12 | < 0.06 | 0.12 | < 0.06 | 1 | 1 | 16 | 1 | < 0.06 | > 128 | 64 | 1 |  |  |  |  |  | 
